Source: article PMC11783601, “Analogue-Sensitive Inhibition of Histone Demethylases Uncovers Member-Specific Function in Ribosomal Protein Synthesis” (Journal of the American Chemical Society, 2025)
“Also recorded” adds a separate entry of the source.

Molecular target: T1, full-length KDM4A-F185A (asKDM4A) (Homo sapiens, UniProt O75164, F185A)
T1 construct: we generated the F185A mutation in full-length KDM4A carrying all of the functional domains; host or cells: HEK293T
Test: H3K9me3 Western blot of nuclear extracts of transfected HEK293T cells
Assay type: cell-based
Conditions: varying concentrations (25-200 µM)
Method: HEK293T cells were transiently transfected with asKDM4A and treated with varying concentrations of 6A or 6B. […] To further confirm the activity of the enzyme–inhibitor pair, we performed tandem mass spectrometry of tryptic histones isolated from HEK293T cells expressing asKDM4A in the presence or absence of 100 μM 6A.
KDM4A mammalian expression plasmid in CMV vector was purchased from Addgene (plasmid #24180). KDM4B mammalian expression plasmid in CMV vector was purchased from Addgene (plasmid #24181). KDM4C mammalian expression plasmid in CMV vector was purchased from Addgene (plasmid #24214). KDM4D mammalian expression plasmid in pReciever vector was purchased from Genecopoia (EX-Z0917-M06.) KDME mammalian expression plasmid in pRP-EXP was designed from Vector Builder. The KDM4A-F185A, KDM4B-F186A, KDM4C -F187A, KDM4D-F189A, and KDM4E F186A mutants were generated using Quikchange Lightening Mutagenesis Kit (Agilent) according to manufacturer’s protocol and confirmed by Sanger […]
For the time dependent imaging, cells containing the transfected KDM4A mutant were identified by their HA signal. […] The mean signal was then measured for H3K9me3 or BrdU only within the cells expressing the KDM4A mutant. To compare changes in H3K9me3 or BrdU between trials, the quantification values were normalized to the mean signal at t=0. […]

T1 sequence (O75164 whole entry F185A, the tested form may be a part): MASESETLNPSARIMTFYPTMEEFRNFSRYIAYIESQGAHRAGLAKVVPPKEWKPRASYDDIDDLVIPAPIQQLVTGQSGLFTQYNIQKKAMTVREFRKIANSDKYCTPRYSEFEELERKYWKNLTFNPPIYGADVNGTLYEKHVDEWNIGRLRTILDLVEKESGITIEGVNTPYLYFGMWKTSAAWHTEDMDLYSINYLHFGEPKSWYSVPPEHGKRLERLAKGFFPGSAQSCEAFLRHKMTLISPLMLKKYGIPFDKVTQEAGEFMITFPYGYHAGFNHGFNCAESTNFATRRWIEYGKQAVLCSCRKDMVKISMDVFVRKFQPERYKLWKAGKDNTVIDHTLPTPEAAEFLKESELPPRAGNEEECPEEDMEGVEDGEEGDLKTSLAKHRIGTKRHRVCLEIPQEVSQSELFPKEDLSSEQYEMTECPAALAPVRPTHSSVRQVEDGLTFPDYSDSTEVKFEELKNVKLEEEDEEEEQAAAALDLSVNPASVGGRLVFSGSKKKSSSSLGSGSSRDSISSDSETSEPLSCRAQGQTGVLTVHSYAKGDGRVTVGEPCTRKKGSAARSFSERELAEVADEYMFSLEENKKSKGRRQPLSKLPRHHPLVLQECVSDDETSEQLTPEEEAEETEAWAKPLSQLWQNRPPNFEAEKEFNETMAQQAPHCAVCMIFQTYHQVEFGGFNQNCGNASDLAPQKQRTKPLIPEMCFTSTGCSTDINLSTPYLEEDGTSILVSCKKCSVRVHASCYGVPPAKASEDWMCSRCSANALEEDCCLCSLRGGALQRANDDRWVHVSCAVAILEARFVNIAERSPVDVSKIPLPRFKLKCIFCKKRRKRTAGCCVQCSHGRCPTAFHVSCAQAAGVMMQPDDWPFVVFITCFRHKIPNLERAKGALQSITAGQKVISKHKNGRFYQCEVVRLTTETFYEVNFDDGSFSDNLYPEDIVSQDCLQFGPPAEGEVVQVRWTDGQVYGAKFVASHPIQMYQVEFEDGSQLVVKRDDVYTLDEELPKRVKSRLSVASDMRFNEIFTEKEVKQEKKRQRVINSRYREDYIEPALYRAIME

Structure (SMILES)	inhibition of asKDM4A (F185A) H3K9me3 demethylation
CCCCCCCCOC(=O)C(=O)NC(CC(C)C)C(=O)O [6A, L-Leu octyl-ester NOG]	Dose-dependent inhibition; also recorded: inhibited by both prodrugs in a dose-dependent manner
CC(C)CC(NC(=O)C(=O)OCc1cccc(C(F)(F)F)c1)C(=O)O [6B, L-Leu TFMB-ester NOG]	Dose-dependent inhibition; also recorded: inhibited by both prodrugs in a dose-dependent manner
